Experimental data published in patent US4985433A, “2-amino-7-(pyridinylmethyl)-3H,5H-pyrrolo[3,2-d]pyrimidin-4-ones and pharmaceutical uses and compositions containing the same” (BioCryst, Inc., priority 1989, dated 1991).

Tested on: plasma inosine
Experiment: Plasma inosine after intraperitoneal injection in Lewis Rats (HPLC of plasma extract)
Type: in vivo
Conditions: intraperitoneal injection in aqueous carrier with ten percent DMSO, 30 mg twice per day, versus vehicle controls, plasma taken at specific times after administration
Experimental: A pharmaceutical composition for intraperitoneal injection is prepared for testing the compound (IA). An intraperitoneal injection solution containing the compound of Example 8 is dissolved in an aqueous carrier that contains ten percent DMSO.
The compound (IA) is intraperitoneally injected into Lewis Rats via the test composition of Example 21 to provide 30 mg of the compound (IA), with an injection given twice per day. Controls are used, which receive only the vehicle. At specific times after administration, the animals are sacrificed and plasma samples are prepared. The plasma is extracted with cold 0.5N HClO4 and neutralized with solid NH4 HCO3. After removal of perchlorate salts, the extract is subjected to HPLC on a reversed phase column (Spherisorb ODSI).
Compounds prepared as in Examples 10-20 are each made into a pharmaceutical formulation in accordance with the preparation of Example 21 and the resultant injectable solutions are tested in accordance with the procedure of Example 22.

In the case of Nc1nc2c(Cc3cccnc3)c[nH]c2c(=O)[nH]1 [compound (IA), 2-amino-7-(3-pyridinylmethyl)-3H,5H-pyrrolo[3,2-d]pyrimidin-4-one], the plasma inosine is reported as “significant increase”.
